According to US11180494B2, “Substituted amino acids as integrin inhibitors” (Pliant Therapeutics, Inc., priority 2018, dated 2021):

target: human integrin αvβ6 (Homo sapiens (Human), UniProt P06756+P18564); assay: Proximity-based integrin receptor binding assay (ALPHASCREEN) for inhibitor potency; settings: inhibition of binding of TGF-b1 LAP to human integrin αvβ6; values given in ranges
Method in brief: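 AlphaScreen: integrin, compound, TGF-b1 LAP, biotinylated anti-LAP antibody and acceptor beads incubated 2 hours, then streptavidin donor beads 30 minutes, at room temperature in 50 mM Tris-HCl pH 7.5, 0.1% BSA, 1 mM CaCl2 and MgCl2. Excitation 680 nm, emission 520-620 nm; IC50 by four-parameter logistic fit.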

human integrin αvβ6, sequence (P06756 31-992): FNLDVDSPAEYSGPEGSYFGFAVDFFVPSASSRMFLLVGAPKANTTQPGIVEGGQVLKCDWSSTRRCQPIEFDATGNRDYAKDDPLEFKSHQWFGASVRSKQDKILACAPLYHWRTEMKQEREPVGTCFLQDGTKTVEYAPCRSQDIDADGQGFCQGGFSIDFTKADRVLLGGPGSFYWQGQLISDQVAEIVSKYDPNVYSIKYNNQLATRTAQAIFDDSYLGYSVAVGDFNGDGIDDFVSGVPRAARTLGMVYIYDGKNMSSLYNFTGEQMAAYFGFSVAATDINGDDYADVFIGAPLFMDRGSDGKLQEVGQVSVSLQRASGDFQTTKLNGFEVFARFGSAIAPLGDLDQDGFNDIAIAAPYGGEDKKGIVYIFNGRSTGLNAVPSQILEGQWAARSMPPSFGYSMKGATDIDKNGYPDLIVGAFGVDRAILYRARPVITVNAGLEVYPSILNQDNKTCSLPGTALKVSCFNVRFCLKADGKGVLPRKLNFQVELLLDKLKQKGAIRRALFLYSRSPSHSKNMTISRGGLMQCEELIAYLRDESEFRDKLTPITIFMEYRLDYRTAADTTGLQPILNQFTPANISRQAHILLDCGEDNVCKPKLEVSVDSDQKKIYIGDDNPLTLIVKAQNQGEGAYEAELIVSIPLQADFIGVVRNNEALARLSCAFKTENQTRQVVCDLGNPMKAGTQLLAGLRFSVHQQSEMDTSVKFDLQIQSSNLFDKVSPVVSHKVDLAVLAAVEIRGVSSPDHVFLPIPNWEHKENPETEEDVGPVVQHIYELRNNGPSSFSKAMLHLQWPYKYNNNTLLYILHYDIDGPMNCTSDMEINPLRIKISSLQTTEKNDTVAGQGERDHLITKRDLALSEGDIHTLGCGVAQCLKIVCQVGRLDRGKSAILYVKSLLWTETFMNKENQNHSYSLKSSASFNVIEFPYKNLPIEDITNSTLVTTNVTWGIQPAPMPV
human integrin αvβ6, sequence (P18564 22-707): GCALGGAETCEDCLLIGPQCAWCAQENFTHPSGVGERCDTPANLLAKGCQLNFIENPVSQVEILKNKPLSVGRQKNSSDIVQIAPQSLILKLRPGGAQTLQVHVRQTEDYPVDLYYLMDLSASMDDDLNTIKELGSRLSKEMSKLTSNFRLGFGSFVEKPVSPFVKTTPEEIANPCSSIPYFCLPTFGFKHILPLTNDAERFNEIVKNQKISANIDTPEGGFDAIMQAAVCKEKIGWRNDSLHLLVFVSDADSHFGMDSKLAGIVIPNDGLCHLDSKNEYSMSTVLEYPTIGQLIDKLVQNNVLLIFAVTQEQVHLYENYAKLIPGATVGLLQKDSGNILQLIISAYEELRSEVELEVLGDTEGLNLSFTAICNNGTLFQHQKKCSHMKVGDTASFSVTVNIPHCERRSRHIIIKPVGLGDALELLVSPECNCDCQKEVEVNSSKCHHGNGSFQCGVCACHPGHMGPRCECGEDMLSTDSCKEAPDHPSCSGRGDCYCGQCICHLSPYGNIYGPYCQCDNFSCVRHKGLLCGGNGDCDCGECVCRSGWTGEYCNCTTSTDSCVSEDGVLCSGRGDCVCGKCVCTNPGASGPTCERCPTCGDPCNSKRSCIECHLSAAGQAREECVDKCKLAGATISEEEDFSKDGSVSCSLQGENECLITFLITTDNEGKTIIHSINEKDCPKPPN

| Structure (SMILES) | IC50 [nM] |
| --- | --- |
| CCC(CC)C(=O)N[C@@H](CCO[C@H]1C[C@H](CCc2ccc3c(n2)NCCC3)C1)C(=O)O [Compound 44, N-(2-ethylbutanoyl)-O-(trans-3-(2-(5,6,7,8-tetrahydro-1,8-naphthyridin-2-yl)ethyl)cyclobutyl)homoserine] | 50 to 250 |
| O=C(N[C@@H](CCO[C@H]1C[C@H](CCc2ccc3c(n2)NCCC3)C1)C(=O)O)c1ccc2cccnc2c1 [Compound 53, N-(quinoline-7-carbonyl)-O-(trans-3-(2-(5,6,7,8-tetrahydro-1,8-naphthyridin-2-yl)ethyl)cyclobutyl)homoserine] | 50 to 250 |
| O=C(N[C@@H](CCO[C@H]1C[C@H](CCc2ccc3c(n2)NCCC3)C1)C(=O)O)c1cccc(CO)c1 [Compound 50, N-(3-(hydroxymethyl)benzoyl)-O-(trans-3-(2-(5,6,7,8-tetrahydro-1,8-naphthyridin-2-yl)ethyl)cyclobutyl)homoserine] | < 50 |
| O=C(N[C@@H](CCO[C@H]1C[C@H](CCc2ccc3c(n2)NCCC3)C1)C(=O)O)c1cccc(Cl)c1 [Compound 20, N-(3-chlorobenzoyl)-O-(trans-3-(2-(5,6,7,8-tetrahydro-1,8-naphthyridin-2-yl)ethyl)cyclobutyl)homoserine] | < 50 |
| O=C(N[C@@H](CCO[C@H]1C[C@H](CCc2ccc3c(n2)NCCC3)C1)C(=O)O)C1CCc2ccccc21 (single isomer, unassigned) [96*,††] | 250 to 1000 |
| CCC(CC)C(=O)NC(CCOCCCCc1ccc2c(n1)NCCC2)C(=O)O (stereo not drawn) [Compound 5, N-(2-ethylbutanoyl)-O-(4-(5,6,7,8-tetrahydro-1,8-naphthyridin-2-yl)butyl)homoserine] | 50 to 250 |
| CC(C)(C)OC(=O)NC(CCO[C@H]1C[C@H](CCc2ccc3c(n2)NCCC3)C1)C(=O)O (stereo partly drawn) [Compound 86, N-(tert-butoxycarbonyl)-O-(trans-3-(2-(5,6,7,8-tetrahydro-1,8-naphthyridin-2-yl)ethyl)cyclobutyl)homoserine] | 250 to 1000 |
| CC(CO[C@H]1C[C@H](CCc2ccc3c(n2)NCCC3)C1)C(NC(=O)OC(C)(C)C)C(=O)O (single isomer, unassigned) [Example 145B, 2-((tert-butoxycarbonyl)amino)-3-methyl-4-(trans-3-(2-(5,6,7,8-tetrahydro-1,8-naphthyridin-2-yl)ethyl)cyclobutoxy)butanoic Acid] | 50 to 250 |
| O=C(NC(CCOCCCCc1ccc2c(n1)NCCC2)C(=O)O)c1ccccc1 (stereo not drawn) [Compound 6, N-benzoyl-O-(4-(5,6,7,8-tetrahydro-1,8-naphthyridin-2-yl)butyl)homoserine] | 250 to 1000 |
| CC(C)(C(=O)NC(CCO[C@H]1C[C@H](CCc2ccc3c(n2)NCCC3)C1)C(=O)O)c1ccc(F)cc1 (stereo partly drawn) [Compound 87, N-(2-(4-fluorophenyl)-2-methylpropanoyl)-O-(trans-3-(2-(5,6,7,8-tetrahydro-1,8-naphthyridin-2-yl)ethyl)cyclobutyl)homoserine] | 250 to 1000 |
| O=C(N[C@@H](CCO[C@H]1C[C@H](CCc2ccc3c(n2)NCCC3)C1)C(=O)O)c1ccccc1Cl [Compound 21, N-(2-chlorobenzoyl)-O-(trans-3-(2-(5,6,7,8-tetrahydro-1,8-naphthyridin-2-yl)ethyl)cyclobutyl)homoserine] | < 50 |
| CC(C)(C)OC(=O)NC(CCO[C@H]1C[C@H](CCc2ccc3c(n2)NCCC3)C1)C(=O)O (stereo partly drawn) [Example 12A, N-(tert-butoxycarbonyl)-O-(trans-3-(2-(5,6,7,8-tetrahydro-1,8-naphthyridin-2-yl)ethyl)cyclobutyl)homoserine] | 50 to 250 |
| O=C(N[C@@H](CCO[C@H]1C[C@H](CCc2ccc3c(n2)NCCC3)C1)C(=O)O)c1cc(F)cc(F)c1 [Compound 28, N-(3,5-difluorobenzoyl)-O-(trans-3-(2-(5,6,7,8-tetrahydro-1,8-naphthyridin-2-yl)ethyl)cyclobutyl)homoserine] | < 50 |
| O=C(N[C@@H](CCO[C@H]1C[C@H](CCc2ccc3c(n2)NCCC3)C1)C(=O)O)c1ccccn1 [Compound 35, N-picolinoyl-O-(trans-3-(2-(5,6,7,8-tetrahydro-1,8-naphthyridin-2-yl)ethyl)cyclobutyl)homoserine] | 50 to 250 |

Other lines, results leading:

| IC50 [nM] | Structure (SMILES) |
| --- | --- |
| < 50 | CCC(CC(F)F)C(=O)NC(CCO[C@H]1C[C@H](CCc2ccc3c(n2)NCCC3)C1)C(=O)O (single isomer, unassigned) [Example 162b, N-(-2-ethyl-4,4-difluorobutanoyl)-O-(trans-3-(2-(5,6,7,8-tetrahydro-1,8-naphthyridin-2-yl)ethyl)cyclobutyl)homoserine] |
| 50 to 250 | O=C(N[C@@H](CCO[C@H]1C[C@H](CCc2ccc3c(n2)NCCC3)C1)C(=O)O)O[C@H]1CC[C@@H](c2ccccc2)CC1 [Compound 149, N-(((cis-4-phenylcyclohexyl)oxy)carbonyl)-O-(trans-3-(2-(5,6,7,8-tetrahydro-1,8-naphthyridin-2-yl)ethyl)cyclobutyl)homoserine] |
| 50 to 250 | O=C(N[C@@H](CCO[C@H]1C[C@H](CCc2ccc3c(n2)NCCC3)C1)C(=O)O)O[C@H]1CCNC1 [Compound 134, N—((((S)-pyrrolidin-3-yl)oxy)carbonyl)-O-(trans-3-(2-(5,6,7,8-tetrahydro-1,8-naphthyridin-2-yl)ethyl)cyclobutyl)homoserine] |
| < 50 | O=C(CC1CC1)N[C@@H](CCO[C@H]1C[C@H](CCc2ccc3c(n2)NCCC3)C1)C(=O)O [Compound 126, N-(2-cyclopropylacetyl)-O-(trans-3-(2-(5,6,7,8-tetrahydro-1,8-naphthyridin-2-yl)ethyl)cyclobutyl)homoserine] |
| < 50 | CC(C)CC(=O)N[C@@H](CCO[C@H]1C[C@H](CCc2ccc3c(n2)NCCC3)C1)C(=O)O [Compound 123, N-(3-methylbutanoyl)-O-(trans-3-(2-(5,6,7,8-tetrahydro-1,8-naphthyridin-2-yl)ethyl)cyclobutyl)homoserine] |
| 50 to 250 | CC1(C(=O)N[C@@H](CCO[C@H]2C[C@@H](CCc3ccc4c(n3)NCCC4)C2)C(=O)O)CCOCC1 [Compound 179, N-(4-methyltetrahydro-2H-pyran-4-carbonyl)-O-(cis-3-(2-(5,6,7,8-tetrahydro-1,8-naphthyridin-2-yl)ethyl)cyclobutyl) homoserine] |
| < 50 | CCC1(C(=O)N[C@@H](CCO[C@H]2C[C@H](CCc3ccc4c(n3)NCCC4)C2)C(=O)O)CCC(F)(F)CC1 [Compound 181, N-(1-ethyl-4,4-difluorocyclohexane-1-carbonyl)-O-(trans-3-(2-(5,6,7,8-tetrahydro-1,8-naphthyridin-2-yl)ethyl)cyclobutyl)homoserine] |
| 50 to 250 | Cc1ccc2c(c1)N(C(=O)C1(C(=O)N[C@@H](CCO[C@H]3C[C@H](CCc4ccc5c(n4)NCCC5)C3)C(=O)O)CC1)CC2 [Compound 182, N-(1-(6-methylindoline-1-carbonyl)cyclopropane-1-carbonyl)-O-(trans-3-(2-(5,6,7,8-tetrahydro-1,8-naphthyridin-2-yl)ethyl)cyclobutyl)homoserine] |
| < 50 | CC(=O)NC[C@H](C)OC(=O)N[C@@H](CCO[C@H]1C[C@H](CCc2ccc3c(n2)NCCC3)C1)C(=O)O [Compound 151, N—((((S)-1-acetamidopropan-2-yl)oxy)carbonyl)-O-(trans-3-(2-(5,6,7,8-tetrahydro-1,8-naphthyridin-2-yl)ethyl)cyclobutyl)homoserine] |
| 50 to 250 | CS(=O)(=O)CCCC(=O)N[C@@H](CCO[C@H]1C[C@H](CCc2ccc3c(n2)NCCC3)C1)C(=O)O [Compound 135, N-(4-(methylsulfonyl)butanoyl)-O-(trans-3-(2-(5,6,7,8-tetrahydro-1,8-naphthyridin-2-yl)ethyl)cyclobutyl)homoserine] |
